According to patent US9220680B2, “Compositions and methods for localized drug delivery through mammary papillae” (South Dakota State University, priority 2012, dated 2015):

What was measured:
[1] = Permeation across human mammary areola vs human breast skin (Experiments 19-21); settings: cadaver tissue; donor in 50:50 ethanol:water; 48 hours
Description: (§1) Mammary areolae and skin tissues were procured from a cadaver (Pacific Islander). […] The drug solutions were spiked with radioactive substances. Now 500 μl of the formulation was placed in the donor. Receptor medium was PBS with 7.4 pH. Three […] samples of donor were taken to determine DPM of donors. 200 μl samples were taken from the receptor at pre-determined time points. […] Results may be seen in FIG. 44.
as §1, with “45.” for “44.”
as §1, with “46.” for “44.”

[2] = Biodistribution of 5FU in rats 6 hours after intraductal and intravenous injection (Experiment 23); assay type: in vivo, Sprague-Dawley rats; settings: rat
Description: The hair on the skin of the rats was removed using a hair removing formulation. The treatment was given after 24 hours to make sure the skin is recovered if damaged or altered due to the hair removal treatment.
Next day, the rats were placed under controlled Isoflurane anesthesia. Now 500 μl of Blood samples were collected from each animal before beginning the experiment, by retro-orbital technique, as a control. For intraductal injection the mammary papilla to be treated was gently wiped with an alcoholic cotton swab to remove the keratin plug. Now 100 μl of 5FU solution in saline (10 mg/ml) was injected into the duct of the mammary papilla under a stereo-microscope. After this the animal was removed from anesthesia and placed into the cage. In case of intravenous injection, similar to intraductal, 100 μl of 5FU solution in saline (10 mg/ml) was injected into the tail vein and the animal was placed into the cage for 6 hours. At the end of 6 hours 500 μl of blood sample was collected. After this the rats were euthanized. Now for intraductal injection the treated area of the rat was cleaned with water. The rat was opened from the abdominal skin. Treated mammary papilla and mammary gland existing underneath the treated mammary papilla was excised and collected. Lateral mammary papilla and mammary gland was collected along with distant mammary papilla and mammary gland, as controls. Followed by this other organs including heart, brain, liver, spleen, kidneys and lungs were collected. In case of intravenous treatment, blood was collected and mammary tissues (mammary papilla, mammary gland and surrounding breast skin) was collected along with other organs including heart, brain, liver, spleen, kidneys and lungs. All the tissues were weighed and then mechanically homogenized to extract the drug. The homogenates were mixed with hydrogen peroxide solution (30% v/v) and then radioactivity into the samples was measured by liquid scintillation counting. Similarly blood samples were centrifuged and the supernatants were analyzed by scintillation counting. Results may be seen in FIG. 49, Table 28 and Table 29.

[3] = Transmammary permeation across human mammary papilla with and without removal of the keratin plug (Experiments 12-18); assay type: in vitro ADME; settings: for lag time / cumulative amount permeated / Drug retention in tissue / Flux: value (SEM); for cumulative amount permeated: 48 hours; for Drug retention in tissue: end of 48 hours
Text: Mammary papillae tissues were thawed. […] The drug solutions were spiked with radioactive substances. […] Receptor medium was PBS with 7.4 pH. […] Results may be seen in FIG. 37 and Table 13.
Mammary papillae tissues were thawed. […] The drug solutions were spiked with radioactive substances. […] Receptor medium was PBS with 7.4 pH. […] Results may be seen in FIG. 38 and Table 15.
Mammary papillae tissues were thawed. […] The drug solutions were spiked with radioactive substances. […] Receptor medium was PBS with 7.4 pH. […] Results may be seen in FIG. 39 and Table 17.
Mammary papillae tissues were thawed. […] The drug solutions were spiked with radioactive substances. […] Receptor medium was PBS with 7.4 pH. […] Results may be seen in FIG. 40.
Mammary papillae and skin tissues were thawed. […] The drug solutions were spiked with radioactive substances. […] Receptor medium was PBS with 7.4 pH. […] Results may be seen in FIG. 41 and Table 20.
Mammary papillae and skin tissues were thawed. […] The drug solutions were spiked with radioactive substances. […] Receptor medium was PBS with 7.4 pH. […] Results may be seen in FIG. 42 and Table 22.
Mammary papillae tissues were thawed. […] The drug solutions were spiked with radioactive substances. […] Receptor medium was PBS with 7.4 pH. […] Results may be seen in FIG. 43 and Table 24.

[4] = 5FU 20 mg/ml, human mammary papilla with keratin plug removal
[5] = 5FU 20 mg/ml, human mammary papilla without keratin plug removal

With `O=c1[nH]cc(F)c(=O)[nH]1` [5FU, 5-fluorouracil] the “Permeability across human mammary areola compared with human breast skin” value [1] was “lower than that across human breast skin”, the “5FU in vital organs of the body” value ([2]; intraductal and intravenous injection) was “significant amount of 5FU in vital organs of the body including kidneys, liver and brain” and the “Drug per gram tissue, mammary gland” value ([2]; intraductal injection) was 0 µmol/g. The “Drug per gram tissue, surrounding skin” value ([2]; intraductal injection) was 0.23 µmol/g, the “Drug per gram tissue of mammary papilla” value ([2]; intraductal injection 100 μl of 10 mg/ml 5FU in saline) was 1.36 µmol/g and the “Drug per gram tissue, mammary gland” value ([2]; intravenous injection) was 0 µmol/g. The “Drug per gram tissue, surrounding skin” value ([2]; intravenous injection) was 0 µmol/g, the “Drug per gram tissue of mammary papilla” value ([2]; intravenous injection 100 μl of 10 mg/ml 5FU in saline) was 0 µmol/g and the lag time ([3]; 5FU 20 mg/ml in 50:50 ethanol:water, human mammary papilla with keratin plug removal, n=3-4) was 8.76 (1.46) hours. For the same molecule, the cumulative amount permeated [3, 4] was 5.06 (1.17) μmole, the “Drug retention in tissue” value [3, 4] was 7.30 (2.81) umole/g of tissue and the Flux [3, 4] was 0.18 (0.05) μmole/cm^2/hour. The cumulative amount permeated [3, 5] was 0.71 (0.08) μmole, the “Drug retention in tissue” value [3, 5] was 2.28 (0.04) umole/g of tissue and the Flux [3, 5] was 0.03 (0.00) μmole/cm^2/hour. The lag time [3, 5] was 17.96 (3.80) hours, the “Permeation profile via human vs porcine mammary papillae” value ([3]; after keratin plug removal, 48 hours (Experiment 15)) was “similar” and the “Increase in permeation across the tissues upon removal of the keratin plugs” value ([3]; human mammary papilla) was “more than 7 fold”.
